From ChEMBL document CHEMBL3751841, “Synthesis of carboxyimidamide-substituted benzo[c][1,2,5]oxadiazoles and their analogs, and evaluation of biological activity against Leishmania donovani” (Medchemcomm, 2015)

Assays:
Leishmania donovani [1] = assay: Antileishmanial activity against Leishmania donovani MHOM/SD/1962/1S-Cl2d axenic amastigotes assessed as inhibition of parasite growth at 50 uM after 24 hrs by alamar blue staining based fluorescent viability microplate assay; assay type: functional; conditions: read-out: GI
[2] = Selectivity index, ratio of EC50 for mouse NIH/3T3 cells to EC50 for Leishmania donovani […] amastigotes; assay type: toxicity, cell-based; conditions: read-out: Ratio EC50
[3] = Selectivity index, ratio of EC50 for human THP1 cells to EC50 for Leishmania donovani axenic amastigotes; assay type: toxicity, cell-based, THP-1; conditions: THP1 cells versus Leishmania donovani axenic amastigotes, read-out: Ratio EC50
Leishmania donovani [4] = assay: Antileishmanial activity against luciferase expressing Leishmania donovani intracellular amastigotes infected in human THP1 cells assessed as inhibition of parasite growth after 48 hrs by Bright-glo luciferase assay; assay type: functional, organism-based; conditions: THP-1, 48 h
Leishmania donovani [5] = assay: Antileishmanial activity against Leishmania donovani MHOM/SD/1962/1S-Cl2d axenic amastigotes assessed as inhibition of parasite growth at 15 uM after 24 hrs by alamar blue staining based fluorescent viability microplate assay; assay type: functional; conditions: read-out: GI
Leishmania donovani [6] = assay: Antileishmanial activity against Leishmania donovani MHOM/SD/1962/1S-Cl2d axenic amastigotes assessed as inhibition of parasite growth after 24 hrs by alamar blue staining based fluorescent viability microplate assay; assay type: functional, organism-based
[7] = Cytotoxicity against mouse NIH/3T3 cells assessed as reduction in cell viability after 48 hrs by alamar blue dye based assay; conditions: NIH3T3, 48 h
Leishmania donovani [8] = assay: Antileishmanial activity against Leishmania donovani MHOM/SD/1962/1S-Cl2d axenic amastigotes assessed as inhibition of parasite growth at 5 uM after 24 hrs by alamar blue staining based fluorescent viability microplate assay; assay type: functional; conditions: read-out: GI
[9] = Cytotoxicity against human THP1 cells assessed as reduction in cell viability after 48 hrs by alamar blue dye based assay; conditions: THP-1, 48 h
Leishmania donovani [10] = assay: Antileishmanial activity against luciferase expressing Leishmania donovani intracellular amastigotes infected in human THP1 cells assessed as inhibition of parasite growth at 5 uM after 48 hrs by Bright-glo luciferase assay; assay type: functional; conditions: THP-1, 48 h, read-out: GI
Leishmania donovani [11] = assay: Antileishmanial activity against Leishmania donovani MHOM/SD/1962/1S-Cl2d axenic amastigotes assessed as inhibition of parasite growth at 1 uM after 24 hrs by alamar blue staining based fluorescent viability microplate assay; assay type: functional; conditions: read-out: GI
Leishmania donovani [12] = assay: Antileishmanial activity against luciferase expressing Leishmania donovani intracellular amastigotes infected in human THP1 cells assessed as inhibition of parasite growth at 1 uM after 48 hrs by Bright-glo luciferase assay; assay type: functional; conditions: THP-1, 48 h, read-out: GI

## N=C(NOC(=O)Nc1cccc(Cl)c1)c1ccc2nonc2c1
Leishmania donovani [1]
  inhibition of growth at 50 µM: 94.8%
[2]
  selectivity ratio: > 71.4
[3]
  selectivity ratio: 19
Leishmania donovani [4]
  EC50: 5.92 µM
Leishmania donovani [5]
  inhibition of growth at 15 µM: 87.2%
Leishmania donovani [6]
  EC50: 4.2 µM
[7]
  EC50: > 300 µM
Leishmania donovani [8]
  inhibition of growth at 5 µM: 43.4%
[9]
  EC50: 79.9 µM
Leishmania donovani [10]
  inhibition of growth at 5 µM: 33.1%

## N=C(NOC(=O)Nc1ccccc1)c1ccc2nonc2c1
Leishmania donovani [1]
  inhibition of growth at 50 µM: 70.1%
Leishmania donovani [5]
  inhibition of growth at 15 µM: 24.2%

## Cc1ccc(NC(=O)O/N=C(\N)c2ccc3nonc3c2)cc1
Leishmania donovani [1]
  inhibition of growth at 50 µM: 64.1%

## N/C(=N\OC(=O)Nc1ccccc1)c1ccc2[nH]ccc2c1
Leishmania donovani [1]
  inhibition of growth at 50 µM: 91.9%
Leishmania donovani [5]
  inhibition of growth at 15 µM: 21.6%

## N/C(=N\OC(=O)Nc1ccccc1)c1ccc2ccccc2c1
Leishmania donovani [1]
  inhibition of growth at 50 µM: 98.8%
Leishmania donovani [5]
  inhibition of growth at 15 µM: 24.9%

## N/C(=N\OC(=O)Nc1ccccc1)c1ccc2occc2c1
Leishmania donovani [1]
  inhibition of growth at 50 µM: 95.2%
Leishmania donovani [5]
  inhibition of growth at 15 µM: 48%

## N/C(=N\OC(=O)Cc1ccccc1)c1ccc2nonc2c1
Leishmania donovani [1]
  inhibition of growth at 50 µM: 22.4%

## N/C(=N\OC(=O)NC1CCCCC1)c1ccc2nonc2c1
Leishmania donovani [1]
  inhibition of growth at 50 µM: 43.9%

## COc1cccc(NC(=O)O/N=C(\N)c2ccc3nonc3c2)c1
Leishmania donovani [1]
  inhibition of growth at 50 µM: 71.4%
Leishmania donovani [5]
  inhibition of growth at 15 µM: 31.8%

## Cc1cccc(NC(=O)O/N=C(\N)c2ccc3nonc3c2)c1
Leishmania donovani [1]
  inhibition of growth at 50 µM: 67.2%
Leishmania donovani [5]
  inhibition of growth at 15 µM: 44.6%

## N/C(=N\OC(=O)Nc1ccc(Cl)cc1)c1ccc2nonc2c1
Leishmania donovani [1]
  inhibition of growth at 50 µM: 44%

## N/C(=N\OC(=O)Oc1ccccc1)c1ccc2nonc2c1
Leishmania donovani [1]
  inhibition of growth at 50 µM: 26.5%

## Cc1ccccc1NC(=O)O/N=C(\N)c1ccc2nonc2c1
Leishmania donovani [1]
  inhibition of growth at 50 µM: 42%

## N/C(=N\OC(=O)c1ccccc1)c1ccc2nonc2c1
Leishmania donovani [1]
  inhibition of growth at 50 µM: 51.1%

## N/C(=N\OC(=O)Nc1cccc(C(F)(F)F)c1)c1ccc2nonc2c1
Leishmania donovani [1]
  inhibition of growth at 50 µM: 51.4%

## N/C(=N\OC(=O)Nc1ccccc1)c1ccc2[nH]cnc2c1
Leishmania donovani [1]
  inhibition of growth at 50 µM: 72%

## N/C(=N\OC(=O)Nc1ccccc1Cl)c1ccc2nonc2c1
Leishmania donovani [1]
  inhibition of growth at 50 µM: 29.6%

## N/C(=N\OC(=O)Nc1ccccc1)c1ccc2c(c1)OCO2
Leishmania donovani [1]
  inhibition of growth at 50 µM: 93%
Leishmania donovani [5]
  inhibition of growth at 15 µM: 33.9%

## COc1ccccc1NC(=O)O/N=C(\N)c1ccc2nonc2c1
Leishmania donovani [1]
  inhibition of growth at 50 µM: 38%

## N/C(=N\OC(=O)Nc1ccc(C(F)(F)F)cc1)c1ccc2nonc2c1
Leishmania donovani [1]
  inhibition of growth at 50 µM: 51.7%

## N/C(=N\OC(=O)Nc1ccccc1)c1ccccc1
Leishmania donovani [1]
  inhibition of growth at 50 µM: 78.4%
Leishmania donovani [5]
  inhibition of growth at 15 µM: 5.4%

## N/C(=N\OC(=O)Nc1ccccc1C(F)(F)F)c1ccc2nonc2c1
Leishmania donovani [1]
  inhibition of growth at 50 µM: 42.1%

## O=C(Nc1ccccc1)ONC(=O)c1ccc2nonc2c1
Leishmania donovani [1]
  inhibition of growth at 50 µM: 96.2%
[2]
  selectivity ratio: > 37
[3]
  selectivity ratio: 4.2
Leishmania donovani [5]
  inhibition of growth at 15 µM: 68.2%
Leishmania donovani [6]
  EC50: 8.1 µM
[7]
  EC50: > 300 µM
Leishmania donovani [8]
  inhibition of growth at 5 µM: 54.6%
[9]
  EC50: 33.7 µM
Leishmania donovani [10]
  inhibition of growth at 5 µM: 19.9%

## COc1ccc(NC(=O)O/N=C(\N)c2ccc3nonc3c2)cc1
Leishmania donovani [1]
  inhibition of growth at 50 µM: 46%

## N/C(=N\OC(=O)Nc1ccccc1)c1ccc2sccc2c1
Leishmania donovani [1]
  inhibition of growth at 50 µM: 97.9%
Leishmania donovani [5]
  inhibition of growth at 15 µM: 35.2%

## C[C@@H]1[C@H](O)[C@@H](C)/C=C/C=C/C=C/C=C/C=C/C=C/C=C/[C@H](O[C@@H]2O[C@H](C)[C@@H](O)[C@H](N)[C@@H]2O)C[C@@H]2O[C@](O)(C[C@@H](O)C[C@@H](O)[C@H](O)CC[C@@H](O)C[C@@H](O)CC(=O)O[C@H]1C)C[C@H](O)[C@H]2C(=O)O [AMPHOTERICIN B]
Leishmania donovani [11]
  inhibition of growth at 1 µM: 99.7%
Leishmania donovani [4]
  EC50: 0.11 µM
Leishmania donovani [12]
  inhibition of growth at 1 µM: > 90%
[7]
  EC50: 2.2 µM
[9]
  EC50: 2.1 µM
